These molecules were tested on YAP-TEAD interaction (assay: SK-HEP-1 reporter assay (8xTEAD responsive elements driving NanoLuc luciferase)). Details: Homo sapiens, SK-HEP1, SK-HEP-1 reporter assay.
Type: cell-based
How it was run: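 SK-HEP-1 cells stably carrying an 8×TEAD-element NanoLuc reporter were treated in duplicate with 10-point dilutions from a top final 30 μM (0.3% DMSO). After 24 h at 37 °C, luciferase activity was read by luminescence with NanoGlo lysis/substrate reagent, and IC50 values were derived.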

**Q.** With `Cc1nnc2n1CCCC2NC(=O)c1ccc2c(c1)c1cn(C)nc1n2-c1ccc(C(F)(F)F)cc1` (stereo not drawn) [Example B64, 2-methyl-N-(3-methyl-5H,6H,7H,8H-[1,2,4]triazolo[4,3-a]pyridin-8-yl}-8-[4-(trifluoromethyl)phenyl]-2H,8H-pyrazolo[3,4-b]indole-5-carboxamide] as the molecule, how does the IC50 read?
**A.** > 10000 nM

**Q.** `Cn1cc2c3cc(C(=O)NCCc4ocnc4CO)ccc3n(-c3ccc(C(F)(F)F)cc3)c2n1` [Example B67, N-{2-[4-(hydroxymethyl)-1,3-oxazol-5-yl]ethyl}-2-methyl-8-[4-(trifluoromethyl)phenyl]-2H,8H-pyrazolo[3,4-b]indole-5-carboxamide] was tested. Which IC50 did it give?
**A.** 10 to 100 nM

**Q.** `Cn1cc2c3cc(C(=O)NCCc4cc(C5CC5)on4)ccc3n(-c3ccc(C(F)(F)F)cc3)c2n1` [Example B95, N-[2-(5-cyclopropyl-1,2-oxazol-3-yl)ethyl]-2-methyl-8-[4-(trifluoromethyl)phenyl]-2H,8H-pyrazolo[3,4-b]indole-5-carboxamide] was tested. Which IC50 did it give?
**A.** 100 to 10000 nM

**Q.** Which IC50 does the source give for `Cn1cc2c3cc(C(=O)NC4COCC4C4CC4)ccc3n(-c3ccc(C(F)(F)F)cc3)c2n1` (stereo not drawn) [B133^] here?
**A.** 10 to 100 nM

**Q.** How did the IC50 turn out when `CCn1cnnc1CNC(=O)c1ccc2c(c1)c1cn(C)nc1n2-c1ccc(C(F)(F)F)cc1` [B129^] was run?
**A.** 100 to 10000 nM

**Q.** Which IC50 does the source give for `Cc1oc(C2CC2)nc1CNC(=O)c1ccc2c(c1)c1cn(C)nc1n2-c1ccc(C(F)(F)F)cc1` [Example B85, N-[(2-cyclopropyl-5-methyl-1,3-oxazol-4-yl)methyl]-2-methyl-8-[4-(trifluoromethyl)phenyl]-2H,8H-pyrazolo[3,4-b]indole-5-carboxamide] here?
**A.** 1 to 10 nM

**Q.** With `Cn1cc2c3cc(C(=O)NC(CCO)c4cncs4)ccc3n(-c3ccc(C(F)(F)F)cc3)c2n1` (stereo not drawn) [Example B9, N-[3-hydroxy-1-(1,3-thiazol-5-yl)propyl]-2-methyl-8-[4-(trifluoromethyl)phenyl]-2H,8H-pyrazolo[3,4-b]indole-5-carboxamide] as the molecule, how does the IC50 read?
**A.** 10 to 100 nM

**Q.** How did the IC50 turn out when `Cn1cc2c3cc(C(=O)NCC4(n5cncn5)CC4)ccc3n(-c3ccc(C(F)(F)F)cc3)c2n1` [B103^] was run?
**A.** 100 to 10000 nM

**Q.** `Cn1cc2c3cc(C(=O)NC4(c5ncon5)CCC4)ccc3n(-c3ccc(C(F)(F)F)cc3)c2n1` [B117^] was tested. Which IC50 did it give?
**A.** 10 to 100 nM

**Q.** `Cn1cc2c3cc(C(=O)NCCc4cn[nH]c4)ccc3n(-c3ccc(C(F)(F)F)cc3)c2n1` [B100^] was tested. Which IC50 did it give?
**A.** 1 to 10 nM

**Q.** `Cn1cc2c3cc(C(=O)NC(C4CC4)C4COCCO4)ccc3n(-c3ccc(C(F)(F)F)cc3)c2n1` (stereo not drawn) [B115^] was tested. Which IC50 did it give?
**A.** 100 to 10000 nM

**Q.** `CCn1ncc(CNC(=O)c2ccc3c(c2)c2cn(C)nc2n3-c2ccc(C(F)(F)F)cc2)c1F` [B119^] was tested. Which IC50 did it give?
**A.** > 10000 nM

**Q.** `CC(NC(=O)c1ccc2c(c1)c1cn(C)nc1n2-c1ccc(C(F)(F)F)cc1)C(C)N1CCOCC1` (stereo not drawn) [Example B61, 2-methyl-N-[3-(morpholin-4-yl)butan-2-yl]-8-[4-(trifluoromethyl)phenyl]-2H,8H-pyrazolo[3,4-b]indole-5-carboxamide] was tested. Which IC50 did it give?
**A.** 100 to 10000 nM

**Q.** `Cn1cc2c3cc(C(=O)NCC4(N5CCOCC5)CC4)ccc3n(-c3ccc(C(F)(F)F)cc3)c2n1` [Example B42, 2-methyl-N-{[1-(morpholin-4-yl)cyclopropyl]methyl}-8-[4-(trifluoromethyl)phenyl]-2H,8H-pyrazolo[3,4-b]indole-5-carboxamide] was tested. Which IC50 did it give?
**A.** 100 to 10000 nM

**Q.** Which IC50 does the source give for `Cn1cc2c3cc(C(=O)NC[C@@H]4C[C@H]4C4CCOCC4)ccc3n(-c3ccc(C(F)(F)F)cc3)c2n1` [B116^] here?
**A.** > 10000 nM

**Q.** Which IC50 does the source give for `O=C(O)c1ccc2c(c1)c1cn(Cc3ccccc3)cc1n2S(=O)(=O)c1ccccc1` [Example 1, 4-(benzenesulfonyl)-2-benzyl-2H,4H-pyrrolo[3,4-b]indole-7-carboxylic acid] here?
**A.** 100 to 10000 nM

**Q.** `Cc1nccc(C2(NC(=O)c3ccc4c(c3)c3cn(C)nc3n4-c3ccc(C(F)(F)F)cc3)CC2)n1` [Example B69, 2-methyl-N-[1-(2-methylpyrimidin-4-yl)cyclopropyl]-8-[4-(trifluoromethyl)phenyl]-2H,8H-pyrazolo[3,4-b]indole-5-carboxamide] was tested. Which IC50 did it give?
**A.** > 10000 nM

**Q.** How did the IC50 turn out when `Cn1cc2c3cc(C(=O)NCc4ccc(F)c(CO)c4)ccc3n(-c3ccc(C(F)(F)F)cc3)c2n1` [Example B19, N-{[4-fluoro-3-(hydroxymethyl)-phenyl]methyl}-2-methyl-8-[4-(trifluoromethyl)phenyl]-2H,8H-pyrazolo[3,4-b]indole-5-carboxamide] was run?
**A.** 1 to 10 nM

**Q.** Which IC50 does the source give for `Cn1cc2c3cc(C(=O)NC4(C5CCCO5)CCC4)ccc3n(-c3ccc(C(F)(F)F)cc3)c2n1` (stereo not drawn) [Example B81, 2-methyl-N-[1-(oxolan-2-yl)cyclobutyl]-8-[4-(trifluoromethyl)phenyl]-2H,8H-pyrazolo[3,4-b]indole-5-carboxamide] here?
**A.** 100 to 10000 nM

**Q.** How did the IC50 turn out when `Cn1cc2c3cc(C(=O)N4CC(CO)(n5cccn5)C4)ccc3n(-c3ccc(C(F)(F)F)cc3)c2n1` [B130^] was run?
**A.** 100 to 10000 nM

**Q.** How did the IC50 turn out when `CC1COC(CO)CN1C(=O)c1ccc2c(c1)c1cn(C)nc1n2-c1ccc(C(F)(F)F)cc1` (stereo not drawn) [Example B72, (5-methyl-4-{2-methyl-8-[4-(trifluoromethyl)phenyl]-2H,8H-pyrazolo[3,4-b]indole-5-carbonyl}morpholin-2-yl)methanol] was run?
**A.** 100 to 10000 nM

**Q.** With `Cn1cc2c3cc(C(=O)NCc4cc(C5CCC5)n[nH]4)ccc3n(-c3ccc(C(F)(F)F)cc3)c2n1` [Example B17, N-[(3-cyclobutyl-1H-pyrazol-5-yl)methyl]-2-methyl-8-[4-(trifluoro-methyl)phenyl]-2H,8H-pyrazolo[3,4-b]indole-5-carboxamide] as the molecule, how does the IC50 read?
**A.** 100 to 10000 nM

**Q.** For `Cn1cc2c3cc(C(=O)NCc4conc4C4CCC4)ccc3n(-c3ccc(C(F)(F)F)cc3)c2n1` [Example B63, N-[(3-cyclobutyl-1,2-oxazol-4-yl)methyl]-2-methyl-8-[4-(trifluoromethyl)phenyl]-2H,8H-pyrazolo[3,4-b]indole-5-carboxamide], which IC50 is on record?
**A.** 100 to 10000 nM

**Q.** Which IC50 does the source give for `Cc1[nH]ncc1CCCNC(=O)c1ccc2c(c1)c1cn(C)nc1n2-c1ccc(C(F)(F)F)cc1` [B132^] here?
**A.** 100 to 10000 nM

**Q.** Which IC50 does the source give for `CO[C@@H]1CCOC[C@H]1NC(=O)c1ccc2c(c1)c1cn(C)nc1n2-c1ccc(C(F)(F)F)cc1` [B131^] here?
**A.** 100 to 10000 nM

**Q.** `CC(NC(=O)c1ccc2c(c1)c1cn(C)nc1n2-c1ccc(C(F)(F)F)cc1)c1c[nH]cn1` (stereo not drawn) [Example B5, N-[1-(1H-imidazol-4-yl)ethyl]-2-methyl-8-[4-(trifluoromethyl)phenyl]-2H,8H-pyrazolo[3,4-b]indole-5-carboxamide] was tested. Which IC50 did it give?
**A.** 100 to 10000 nM

**Q.** With `Cn1cc2c3cc(C(=O)NC4CCCc5[nH]ccc54)ccc3n(-c3ccc(C(F)(F)F)cc3)c2n1` (stereo not drawn) [Example B44, 2-methyl-N-(4,5,6,7-tetrahydro-1H-indol-4-yl)-8-[4-(trifluoromethyl)phenyl]-2H,8H-pyrazolo[3,4-b]indole-5-carboxamide] as the molecule, how does the IC50 read?
**A.** 100 to 10000 nM

**Q.** For `CCOC1CC(N(C)C(=O)c2ccc3c(c2)c2cn(C)nc2n3-c2ccc(C(F)(F)F)cc2)C1(C)C` (stereo not drawn) [Example B99, N-(3-ethoxy-2,2-dimethylcyclobutyl)-N,2-dimethyl-8-[4-(trifluoromethyl)phenyl]-2H,8H-pyrazolo[3,4-b]indole-5-carboxamide], which IC50 is on record?
**A.** > 10000 nM

**Q.** Which IC50 does the source give for `COCc1noc(C(C)NC(=O)c2ccc3c(c2)c2cn(C)nc2n3-c2ccc(C(F)(F)F)cc2)n1` (stereo not drawn) [Example B86, N-{1-[3-(methoxymethyl)-1,2,4-oxadiazol-5-yl]ethyl}-2-methyl-8-[4-(trifluoromethyl)phenyl]-2H,8H-pyrazolo[3,4-b]indole-5-carboxamide] here?
**A.** 100 to 10000 nM

**Q.** How did the IC50 turn out when `Cn1cc2c3cc(C(=O)N4CC5(CCCC5)CC4CO)ccc3n(-c3ccc(C(F)(F)F)cc3)c2n1` (stereo not drawn) [Example B10, (2-{2-methyl-8-[4-(trifluoromethyl)phenyl]-2H,8H-pyrazolo[3,4-b]indole-5-carbonyl}-2-azaspiro[4.4]nonan-3-yl)methanol] was run?
**A.** 100 to 10000 nM

**Q.** `Cn1cc2c3cc(C(=O)N[C@@H]4[C@H](O)[C@@H]5CCC[C@@H]54)ccc3n(-c3ccc(C(F)(F)F)cc3)c2n1` (relative stereo) [Example B43, N-[(1R,5S,6S,7R)-7-hydroxy-bicyclo[3.2.0]heptan-6-yl]-2-methyl-8-[4-(trifluoromethyl)phenyl]-2H,8H-pyrazolo[3,4-b]indole-5-carboxamide] was tested. Which IC50 did it give?
**A.** 100 to 10000 nM

**Q.** `CC(C)CC(NC(=O)c1ccc2c(c1)c1cn(C)nc1n2-c1ccc(C(F)(F)F)cc1)c1nc[nH]n1` (stereo not drawn) [Example B24, 2-methyl-N-[3-methyl-1-(1H-1,2,4-triazol-3-yl)butyl]-8-[4-(trifluoromethyl)phenyl]-2H,8H-pyrazolo[3,4-b]indole-5-carboxamide] was tested. Which IC50 did it give?
**A.** 100 to 10000 nM

**Q.** `CCn1nnc(C)c1CNC(=O)c1ccc2c(c1)c1cn(C)nc1n2-c1ccc(C(F)(F)F)cc1` [Example B96, N-[(1-ethyl-4-methyl-1H-1,2,3-triazol-5-yl)methyl]-2-methyl-8-[4-(trifluoromethyl)phenyl]-2H,8H-pyrazolo[3,4-b]indole-5-carboxamide] was tested. Which IC50 did it give?
**A.** 100 to 10000 nM
